Laboratory results published in patent publication US8415469B2, “Compounds and methods for kinase modulation, and indications therefor” (Plexxikon Inc., priority 2005, dated 2013).

How the values were obtained:
Assay type in all cases: biochemical
Jnk1 = biological target: T1, Jnk1 (Homo sapiens, UniProt P45983); test: AlphaScreen kinase assay, Jnk1; conditions: read-out: IC50, activity toward kinase Jnk1
T1 construct: purchased Upstate Biotechnology

B-Raf V600E = biological target: T2, B-Raf V600E (Homo sapiens, UniProt P15056, V600E); test: AlphaScreen kinase assay, B-Raf V600E; conditions: read-out: IC50, activity toward kinase B-Raf V600E
T2 construct: P4254. pFastBacBD-CDC37 BRAF D437-K722-X, V600E; His6 with pFastBac HT leader (TEV site) (N); made in house; host or cells: Sf9 (baculovirus; chaperone CDC37 co-expressed)
T2 sequence (P15056 with tags, fused parts or gaps V600E): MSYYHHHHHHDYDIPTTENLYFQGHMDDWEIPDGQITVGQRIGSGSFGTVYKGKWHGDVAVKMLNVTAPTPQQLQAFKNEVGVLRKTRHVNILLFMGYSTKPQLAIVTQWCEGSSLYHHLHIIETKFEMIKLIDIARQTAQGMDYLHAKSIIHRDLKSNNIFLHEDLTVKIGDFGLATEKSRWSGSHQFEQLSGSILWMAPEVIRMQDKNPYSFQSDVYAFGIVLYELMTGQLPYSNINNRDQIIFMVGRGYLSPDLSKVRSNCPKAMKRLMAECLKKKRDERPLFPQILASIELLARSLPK

c-Raf-1 = biological target: T3, c-Raf-1 (Homo sapiens, UniProt P04049); test: AlphaScreen kinase assay, c-Raf-1; conditions: read-out: IC50, activity toward kinase c-Raf-1
T3 construct: purchased Upstate Biotechnology
T3 sequence (P04049 whole entry): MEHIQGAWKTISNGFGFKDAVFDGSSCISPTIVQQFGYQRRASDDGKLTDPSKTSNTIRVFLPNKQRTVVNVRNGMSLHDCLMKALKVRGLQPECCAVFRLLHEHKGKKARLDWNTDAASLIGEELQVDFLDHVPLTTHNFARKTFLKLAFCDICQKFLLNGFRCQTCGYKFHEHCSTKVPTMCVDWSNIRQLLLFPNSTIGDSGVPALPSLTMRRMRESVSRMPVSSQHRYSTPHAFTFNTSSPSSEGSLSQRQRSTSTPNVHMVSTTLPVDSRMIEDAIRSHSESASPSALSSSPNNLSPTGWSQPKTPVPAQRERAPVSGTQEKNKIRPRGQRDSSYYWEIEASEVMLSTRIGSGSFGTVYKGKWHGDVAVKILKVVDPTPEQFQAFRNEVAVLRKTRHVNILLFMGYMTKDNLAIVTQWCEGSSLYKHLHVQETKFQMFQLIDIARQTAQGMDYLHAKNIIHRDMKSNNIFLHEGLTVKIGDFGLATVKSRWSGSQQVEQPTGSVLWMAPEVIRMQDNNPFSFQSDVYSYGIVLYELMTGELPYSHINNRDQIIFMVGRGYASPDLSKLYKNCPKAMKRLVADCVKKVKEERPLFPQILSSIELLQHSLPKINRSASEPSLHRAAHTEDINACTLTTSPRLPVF

Ret = biological target: T4, Ret (Homo sapiens, UniProt P07949); test: AlphaScreen kinase assay, Ret; conditions: read-out: IC50, activity toward kinase Ret
T4 construct: P1378.pET-SF BI-PTP RET H661-R1012 HIS; made in house
T4 sequence (P07949 with tags, fused parts or gaps): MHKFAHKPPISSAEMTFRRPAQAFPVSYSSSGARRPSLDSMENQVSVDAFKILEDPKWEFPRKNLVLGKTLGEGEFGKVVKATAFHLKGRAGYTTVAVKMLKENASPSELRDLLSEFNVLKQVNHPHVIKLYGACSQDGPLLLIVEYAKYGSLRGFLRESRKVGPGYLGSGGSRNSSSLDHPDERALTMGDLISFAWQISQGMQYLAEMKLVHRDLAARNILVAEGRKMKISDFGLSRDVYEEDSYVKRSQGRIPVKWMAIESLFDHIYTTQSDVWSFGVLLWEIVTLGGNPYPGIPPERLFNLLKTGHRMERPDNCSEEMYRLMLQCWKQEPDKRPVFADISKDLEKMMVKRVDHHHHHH

B-Raf = biological target: T5, B-Raf (Homo sapiens, UniProt P15056); test: AlphaScreen kinase assay, B-Raf; conditions: read-out: IC50, activity toward kinase B-Raf
T5 construct: purchased Upstate Biotechnology
T5 sequence (P15056 whole entry): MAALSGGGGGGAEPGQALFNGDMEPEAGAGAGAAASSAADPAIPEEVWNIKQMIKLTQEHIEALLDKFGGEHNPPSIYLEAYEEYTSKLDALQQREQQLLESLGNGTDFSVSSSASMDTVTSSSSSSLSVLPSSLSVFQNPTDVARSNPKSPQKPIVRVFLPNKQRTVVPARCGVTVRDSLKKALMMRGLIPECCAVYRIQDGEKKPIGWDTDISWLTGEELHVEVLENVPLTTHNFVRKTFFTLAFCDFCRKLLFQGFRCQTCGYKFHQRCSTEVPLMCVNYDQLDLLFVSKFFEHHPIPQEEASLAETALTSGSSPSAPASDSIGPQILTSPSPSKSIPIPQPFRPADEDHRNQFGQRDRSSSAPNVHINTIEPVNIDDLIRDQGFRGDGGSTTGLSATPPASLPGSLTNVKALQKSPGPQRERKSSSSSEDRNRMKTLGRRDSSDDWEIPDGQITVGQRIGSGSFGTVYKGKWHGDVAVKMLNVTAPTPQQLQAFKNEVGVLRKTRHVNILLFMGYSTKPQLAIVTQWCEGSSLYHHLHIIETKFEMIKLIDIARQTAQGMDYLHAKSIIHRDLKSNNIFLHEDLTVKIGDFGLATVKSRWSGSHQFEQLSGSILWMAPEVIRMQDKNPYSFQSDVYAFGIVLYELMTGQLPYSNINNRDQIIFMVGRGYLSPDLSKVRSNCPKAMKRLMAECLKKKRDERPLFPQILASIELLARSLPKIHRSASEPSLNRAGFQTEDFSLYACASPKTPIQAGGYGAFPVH

FGFR1 = biological target: T6, FGFR1 (Homo sapiens, UniProt P11362, C488A/C584S); test: AlphaScreen kinase assay, FGFR1; conditions: read-out: IC50, activity toward kinase FGFR
T6 construct: P1351.pET N6 BI-PTP FGFR A458-E765-X C488A, C584S; made in house; host or cells: E. coli (PTP1B co-expressed)
T6 sequence (P11362 458-765 C488A/C584S): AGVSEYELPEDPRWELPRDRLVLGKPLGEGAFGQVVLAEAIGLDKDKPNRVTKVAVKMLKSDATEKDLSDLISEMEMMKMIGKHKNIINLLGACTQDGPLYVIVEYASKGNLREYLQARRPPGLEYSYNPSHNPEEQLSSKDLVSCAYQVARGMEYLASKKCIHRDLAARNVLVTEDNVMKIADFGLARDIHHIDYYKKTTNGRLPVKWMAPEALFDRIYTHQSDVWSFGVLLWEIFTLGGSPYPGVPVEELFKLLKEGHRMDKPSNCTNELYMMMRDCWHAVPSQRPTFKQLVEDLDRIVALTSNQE

Kit = biological target: T7, Kit (Homo sapiens, UniProt P10721); test: AlphaScreen kinase assay, Kit; conditions: read-out: IC50, activity toward kinase Kit
T7 construct: P1332.N6 BI PTP KIT M552-K948-X COD; His6 (N); made in house; host or cells: E. coli (PTP1B co-expressed)
T7 sequence (P10721 with tags, fused parts or gaps): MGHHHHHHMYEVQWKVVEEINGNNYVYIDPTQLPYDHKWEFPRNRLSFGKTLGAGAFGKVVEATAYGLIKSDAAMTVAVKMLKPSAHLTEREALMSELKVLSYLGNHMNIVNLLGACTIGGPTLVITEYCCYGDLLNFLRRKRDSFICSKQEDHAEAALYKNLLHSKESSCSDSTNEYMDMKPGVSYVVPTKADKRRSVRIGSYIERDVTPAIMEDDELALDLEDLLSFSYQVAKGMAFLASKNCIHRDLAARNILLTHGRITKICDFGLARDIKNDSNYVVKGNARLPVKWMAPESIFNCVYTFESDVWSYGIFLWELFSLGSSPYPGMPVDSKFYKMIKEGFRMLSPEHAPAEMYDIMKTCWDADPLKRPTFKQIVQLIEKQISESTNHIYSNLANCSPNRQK

Fms = biological target: T8, Fms (Homo sapiens, UniProt P07333); test: AlphaScreen kinase assay, Fms; conditions: read-out: IC50, activity toward kinase Fms
T8 construct: purchased Upstate Biotechnology
T8 sequence (P07333 20-972): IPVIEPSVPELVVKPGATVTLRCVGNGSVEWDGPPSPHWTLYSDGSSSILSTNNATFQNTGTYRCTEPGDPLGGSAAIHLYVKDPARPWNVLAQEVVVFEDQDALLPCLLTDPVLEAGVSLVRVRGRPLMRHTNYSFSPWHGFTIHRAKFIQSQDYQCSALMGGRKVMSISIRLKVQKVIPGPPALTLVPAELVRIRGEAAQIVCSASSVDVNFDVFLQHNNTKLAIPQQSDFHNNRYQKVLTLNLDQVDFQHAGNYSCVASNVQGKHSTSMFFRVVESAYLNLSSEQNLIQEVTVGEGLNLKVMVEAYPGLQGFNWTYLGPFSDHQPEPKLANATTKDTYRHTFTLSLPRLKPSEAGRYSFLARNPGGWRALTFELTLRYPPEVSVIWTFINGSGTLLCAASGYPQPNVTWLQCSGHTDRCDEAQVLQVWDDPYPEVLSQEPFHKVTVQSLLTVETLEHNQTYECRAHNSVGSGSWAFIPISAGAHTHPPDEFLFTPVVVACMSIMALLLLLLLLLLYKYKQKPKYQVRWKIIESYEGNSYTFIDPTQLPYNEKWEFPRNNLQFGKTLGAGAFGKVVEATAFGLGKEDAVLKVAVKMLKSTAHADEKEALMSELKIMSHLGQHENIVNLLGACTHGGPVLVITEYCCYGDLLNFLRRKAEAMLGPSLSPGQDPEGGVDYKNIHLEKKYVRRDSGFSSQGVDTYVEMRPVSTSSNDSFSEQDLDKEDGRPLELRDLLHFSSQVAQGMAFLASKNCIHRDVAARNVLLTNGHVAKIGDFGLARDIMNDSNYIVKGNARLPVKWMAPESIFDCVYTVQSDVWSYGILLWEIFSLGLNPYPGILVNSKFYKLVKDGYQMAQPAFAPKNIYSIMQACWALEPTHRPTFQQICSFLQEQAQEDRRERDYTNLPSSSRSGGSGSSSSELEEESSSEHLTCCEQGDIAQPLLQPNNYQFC

Flt1 = biological target: T9, Flt1 (Homo sapiens, UniProt P17948); test: AlphaScreen kinase assay, Flt1; conditions: read-out: IC50, activity toward kinase Flt1
T9 construct: P1826.pETN6 BI-PTP FLT1 M799-D1165-X WT; His6 (N); made in house; host or cells: E. coli (PTP1B co-expressed)
T9 sequence (P17948 with tags, fused parts or gaps): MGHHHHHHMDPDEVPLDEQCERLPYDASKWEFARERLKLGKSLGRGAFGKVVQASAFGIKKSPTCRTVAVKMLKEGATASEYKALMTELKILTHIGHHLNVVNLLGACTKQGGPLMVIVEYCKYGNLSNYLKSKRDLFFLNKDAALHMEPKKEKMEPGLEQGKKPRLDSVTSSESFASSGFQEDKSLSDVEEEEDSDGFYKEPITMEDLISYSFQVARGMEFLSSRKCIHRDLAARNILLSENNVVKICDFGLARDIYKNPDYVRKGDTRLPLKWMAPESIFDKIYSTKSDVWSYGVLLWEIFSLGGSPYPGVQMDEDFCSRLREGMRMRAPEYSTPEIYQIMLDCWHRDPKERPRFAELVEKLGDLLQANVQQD

Jnk3 = biological target: T10, Jnk3 (Homo sapiens, UniProt P53779); test: AlphaScreen kinase assay, Jnk3; conditions: read-out: IC50, activity toward kinase Jnk3
T10 construct: purchased Upstate Biotechnology
T10 sequence (P53779 whole entry): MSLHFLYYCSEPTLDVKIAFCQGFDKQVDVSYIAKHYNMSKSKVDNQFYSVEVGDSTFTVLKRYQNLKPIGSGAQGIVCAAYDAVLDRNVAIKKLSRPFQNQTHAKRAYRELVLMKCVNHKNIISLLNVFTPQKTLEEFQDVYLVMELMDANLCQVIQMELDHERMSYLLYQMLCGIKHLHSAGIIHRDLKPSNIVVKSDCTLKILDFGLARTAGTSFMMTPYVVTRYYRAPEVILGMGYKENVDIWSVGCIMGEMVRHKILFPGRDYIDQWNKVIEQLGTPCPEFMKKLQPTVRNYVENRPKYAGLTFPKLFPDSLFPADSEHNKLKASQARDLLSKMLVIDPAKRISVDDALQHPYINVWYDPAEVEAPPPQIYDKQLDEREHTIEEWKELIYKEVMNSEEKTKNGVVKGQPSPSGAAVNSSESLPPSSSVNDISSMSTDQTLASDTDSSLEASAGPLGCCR

T1 sequence (P45983 whole entry): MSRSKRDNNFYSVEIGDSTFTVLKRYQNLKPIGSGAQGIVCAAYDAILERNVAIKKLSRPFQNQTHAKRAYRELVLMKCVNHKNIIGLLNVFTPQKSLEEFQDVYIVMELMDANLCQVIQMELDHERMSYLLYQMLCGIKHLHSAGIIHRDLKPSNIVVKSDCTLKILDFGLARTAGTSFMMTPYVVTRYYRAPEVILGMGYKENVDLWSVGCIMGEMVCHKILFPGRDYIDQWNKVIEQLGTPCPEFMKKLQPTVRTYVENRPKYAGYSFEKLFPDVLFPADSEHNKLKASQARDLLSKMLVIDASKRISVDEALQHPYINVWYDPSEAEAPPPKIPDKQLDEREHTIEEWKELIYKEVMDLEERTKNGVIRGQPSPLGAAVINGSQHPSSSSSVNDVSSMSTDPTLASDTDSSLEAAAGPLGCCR

Row | IC50 (Jnk1) [µM] | IC50 (B-Raf V600E) [µM] | IC50 (c-Raf-1) [µM] | IC50 (Ret) [µM] | IC50 (B-Raf) [µM] | IC50 (FGFR1) [µM] | IC50 (Kit) [µM] | IC50 (Fms) [µM] | IC50 (Flt1) [µM] | IC50 (Jnk3) [µM] | Compound
1 | ≤ 10 | ≤ 10 | ≤ 10 | ≤ 10 | ≤ 10 | ≤ 10 | – | – | – | – | CS(=O)(=O)Nc1cccc(-c2cnc3[nH]cc(C(=O)c4c(Cl)ccc(NS(C)(=O)=O)c4F)c3c2)c1 [Compound P-0745, N-{4-Chloro-2-fluoro-3-[5-(3-methanesulfonylamino-phenyl)-1H-pyrrolo[2,3-b]pyridine-3-carbonyl]-phenyl}-methanesulfonamide]
2 | ≤ 10 | ≤ 10 | ≤ 10 | – | ≤ 10 | ≤ 10 | ≤ 10 | – | – | – | CCCS(=O)(=O)Nc1ccc(F)c(C(=O)c2c[nH]c3ncc(N4CCC(C)CC4)cc23)c1F [Compound P-0860, propane-1-sulfonic acid {2,4-difluoro-3-[5-(4-methyl-piperidin-1-yl)-1H-pyrrolo[2,3-b]pyridine-3-carbonyl]-phenyl}-amide]
3 | ≤ 10 | ≤ 10 | ≤ 10 | – | ≤ 10 | ≤ 10 | ≤ 10 | ≤ 10 | ≤ 10 | – | CCCS(=O)(=O)Nc1ccc(F)c(C(=O)c2c[nH]c3ncc(-c4ccc(F)cc4)cc23)c1F [Compound P-1260, Propane-1-sulfonic acid {2,4-difluoro-3-[5-(4-fluoro-phenyl)-1H-pyrrolo[2.3 b]pyridine-3-carbonyl]-phenyl}-amide]
4 | ≤ 10 | – | – | – | – | – | – | – | – | ≤ 10 | CN(C)c1ccc(Nc2ccc3cc[nH]c3n2)cc1 [Compound P-1356, N,N-Dimethyl-N′-(1H -pyrrolo[2,3-b]pyridin-6-yl)-benzene-1,4-diamine]
5 | ≤ 10 | – | – | – | – | – | – | – | ≤ 10 | – | O=C(c1c[nH]c2ncc(-c3cccnc3)cc12)c1cccc2c1ccn2COCc1ccccc1 [Compound P-1523, (1-Benzyloxymethyl-1H-indol-4-yl)-(5-pyridin-3-yl-1H-pyrrolo[2,3-b]pyridin-3-yl)-methanone]
6 | ≤ 10 | ≤ 10 | – | – | ≤ 10 | ≤ 10 | ≤ 10 | ≤ 10 | ≤ 10 | – | CCCS(=O)(=O)Nc1ccc(F)c(C(=O)c2c[nH]c3ncc(-c4cccc(C(N)=O)c4)cc23)c1F [Compound P-1549, 3-{3-[2,6-Difluoro-3-(propane-1-sulfonylamino)-benzoyl]-1H-pyrrolo[2,3-b]pyridin-5-yl}-benzamide]
7 | ≤ 10 | ≤ 10 | – | – | ≤ 10 | – | ≤ 10 | ≤ 10 | ≤ 10 | – | O=C(NCc1ccccc1)Nc1cccc(C(=O)c2c[nH]c3ncc(Br)cc23)c1 [Compound P-1553, 1-Benzyl-3-[3-(5-bromo-1H-pyrrolo[2,3-b]pyridine-3-carbonyl)-phenyl]-urea]
8 | ≤ 10 | ≤ 10 | – | – | ≤ 10 | ≤ 10 | – | ≤ 10 | ≤ 10 | – | O=C(c1ccc(Cl)cc1Cl)c1c[nH]c2ncc(-c3cccnc3)cc12 [Compound P-1556]
9 | ≤ 10 | ≤ 10 | – | – | ≤ 10 | – | – | ≤ 10 | ≤ 10 | – | CCCCNC(=O)Nc1cccc(C(=O)c2c[nH]c3ncc(Br)cc23)c1 [Compound P-1596, 1-[3-(5-bromo-1H-pyrrolo[2,3-b]pyridine-3-carbonyl)-phenyl]-3-butyl-urea]
10 | ≤ 10 | ≤ 10 | – | – | ≤ 10 | – | – | ≤ 10 | – | ≤ 10 | CCCCN(CCCC)C(=O)n1ccc2c(C(=O)c3c[nH]c4ncc(-c5cccnc5)cc34)cccc21 [Compound P-1636, 4-(5-pyridin-3-yl-1H-pyrrolo[2,3-b]pyridine-3-carbonyl)-indole-1-carboxylic acid dibutylamide]
11 | ≤ 10 | ≤ 10 | – | – | ≤ 10 | – | – | ≤ 10 | – | – | CCCS(=O)(=O)Nc1cccc(C(=O)c2c[nH]c3ncc(-c4cccnc4)cc23)c1 [Compound P-1638]
12 | ≤ 10 | ≤ 10 | – | – | ≤ 10 | – | – | ≤ 10 | – | – | CCCS(=O)(=O)Nc1cccc(C(=O)c2c[nH]c3ncc(-c4ccc(F)cc4)cc23)c1 [Compound P-1639]
13 | ≤ 10 | ≤ 10 | – | – | ≤ 10 | – | – | ≤ 10 | – | – | CCCCNC(=O)Nc1ccc(F)c(C(=O)c2c[nH]c3ncc(-c4cccc(OC(F)(F)F)c4)cc23)c1 [Compound P-1660, 1-Butyl-3-{4-fluoro-3-[5-(3-trifluoromethoxy-phenyl)-1H-pyrrolo[2,3-b]pyridine-3-carbonyl]-phenyl}-urea]
14 | ≤ 10 | ≤ 10 | – | – | ≤ 10 | – | ≤ 10 | ≤ 10 | – | – | COc1ccc(NC(=O)Nc2cccc(C(=O)c3c[nH]c4ncccc34)c2)cc1OC [Compound P-1708, 1-(3,4-Dimethoxy-phenyl)-3-[3-(1H-pyrrolo[2,3-b]pyridine-3-carbonyl)-phenyl]-urea]
15 | ≤ 10 | ≤ 10 | – | – | ≤ 10 | – | – | ≤ 10 | – | – | COc1ccc(NC(=O)Nc2cccc(C(=O)c3c[nH]c4ncc(-c5cccnc5)cc34)c2)cc1OC [Compound P-1725, 1-(3,4-Dimethoxy-phenyl)-3-[3-(5-pyridin-3-yl-1H-pyrrolo[2,3-b]pyridine-3-carbonyl)-phenyl]-urea]
16 | ≤ 10 | ≤ 10 | – | – | ≤ 10 | – | – | ≤ 10 | – | ≤ 10 | O=C(Nc1cccc(C(=O)c2c[nH]c3ncc(Cl)cc23)c1)Nc1ccon1 [Compound P-1775, 1-[3-(5-Chloro-1H-pyrrolo[2,3-b]pyridine-3-carbonyl)-phenyl]-3-isoxazol-3-yl-urea]
17 | ≤ 10 | ≤ 10 | ≤ 10 | – | ≤ 10 | – | ≤ 10 | ≤ 10 | – | – | CC(C)c1ccc(S(=O)(=O)Nc2ccc(F)c(C(=O)c3c[nH]c4ncc(Cl)cc34)c2F)cc1 [Compound P-1839, N-[3-(5-chloro-1H-pyrrolo[2,3-b]pyridine-3-carbonyl)-2,4-difluoro-phenyl]-4-isopropyl-benzenesulfonamide]
18 | ≤ 10 | ≤ 10 | ≤ 10 | – | ≤ 10 | – | ≤ 10 | ≤ 10 | – | – | CCCS(=O)(=O)Nc1ccc(F)c(C(=O)c2c[nH]c3ncc(-c4cccc(N5CCOCC5)c4)cc23)c1F [Compound P-1873, Propane-1-sulfonic acid {2,4-difluoro-3-[5-(3-morpholin-4-yl-phenyl)-1H-pyrrolo[2,3-b]pyridine-3-carbonyl]-phenyl}-amide]
19 | ≤ 10 | ≤ 10 | ≤ 10 | – | ≤ 10 | – | ≤ 10 | ≤ 10 | – | – | CCCS(=O)(=O)Nc1ccc(F)c(C(=O)c2c[nH]c3ncc(-c4cccc(CN5CCOCC5)c4)cc23)c1F [Compound P-1878, Propane-1-sulfonic acid {2,4-difluoro-3-[5-(3-morpholin-4-ylmethyl-phenyl)-1H-pyrrolo[2,3-b]pyridine-3-carbonyl]-phenyl}-amide]
20 | ≤ 10 | ≤ 10 | ≤ 10 | – | ≤ 10 | – | ≤ 10 | ≤ 10 | – | – | CCCS(=O)(=O)Nc1ccc(F)c(C(=O)c2c[nH]c3ncc(-c4ccc(OC)nc4)cc23)c1F [Compound P-1879, Propane-1-sulfonic acid {2,4-difluoro-3-[5-(6-methoxy-pyridin-3-yl)-1H-pyrrolo[2,3-b]pyridine-3-carbonyl]-phenyl}-amide]
